Test results reported in ChEMBL document CHEMBL1128764, “Peptidyl aldehyde derivatives as potent and selective inhibitors of cathepsin L” (Bioorg Med Chem Lett, 1995).
The source made the active and inactive calls. No cut-off for these calls is given here. Where a SMILES comes first, the peptide text is derived from it. The star is where a group is joined. Cbz = O=C(OCc1ccccc1)*

What was measured:
[1] = target: Chymotrypsinogen A (Bos taurus) (UniProt P00766); assay: Compound was tested for its inhibitory activity against alpha-chymotrypsin at concentration less than 1000 ng/ml; no inhibition
[2] = target: T1, Cathepsin B (Homo sapiens, UniProt P07858); assay: Ratio of Inhibitory activity against cathepsin B/cathepsin L
[3] = Compound was tested for its inhibitory activity against cathepsin L
[4] = target: T1, Cathepsin B; assay: Compound was tested for its inhibitory activity against cathepsin B
[5] = target: T2, Calpain-2 catalytic subunit (Homo sapiens, UniProt P17655); assay: Compound was tested for its inhibitory activity against calpain 2
T2 sequence (P17655 whole entry): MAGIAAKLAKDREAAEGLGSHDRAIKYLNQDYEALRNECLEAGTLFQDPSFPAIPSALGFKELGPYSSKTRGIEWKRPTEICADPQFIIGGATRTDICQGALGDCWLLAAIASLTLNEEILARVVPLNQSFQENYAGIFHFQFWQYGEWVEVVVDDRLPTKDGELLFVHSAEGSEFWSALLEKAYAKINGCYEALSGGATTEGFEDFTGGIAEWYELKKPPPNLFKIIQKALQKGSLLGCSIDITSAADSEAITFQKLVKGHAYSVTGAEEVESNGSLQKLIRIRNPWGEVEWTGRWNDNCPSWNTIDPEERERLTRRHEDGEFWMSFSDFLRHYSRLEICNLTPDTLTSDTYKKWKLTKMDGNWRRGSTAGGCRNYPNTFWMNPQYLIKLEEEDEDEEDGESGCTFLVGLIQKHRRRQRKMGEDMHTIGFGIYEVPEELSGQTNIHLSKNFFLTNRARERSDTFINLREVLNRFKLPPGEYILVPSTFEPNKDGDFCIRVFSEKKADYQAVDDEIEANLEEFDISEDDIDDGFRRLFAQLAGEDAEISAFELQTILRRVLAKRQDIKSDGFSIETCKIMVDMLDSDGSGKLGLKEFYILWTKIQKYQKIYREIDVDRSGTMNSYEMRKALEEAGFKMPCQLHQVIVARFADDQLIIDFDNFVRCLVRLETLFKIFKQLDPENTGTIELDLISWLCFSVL

[6] = target: T2, Calpain-2 catalytic subunit; assay: Compound was tested for its inhibitory activity against Calpain 2

Row | inhibition [1] | Ratio [2] | IC50 [3] | IC50 [4] | IC50 [5] | IC50 [6] | Structure (SMILES)
1 | inactive | 1.66 | 70.3 nM | 117 nM | – | – | CC(=O)N[C@@H](CC(C)C)C(=O)N[C@@H](CC(C)C)C(=O)N[C@H](C=O)CCCNC(=N)N [LEUPEPTIN]
2 | inactive | 100 | 0.85 nM | 85.1 nM | 184 nM | – | O=C(N[C@@H](Cc1ccccc1)C(=O)N[C@@H](Cc1ccc(O)cc1)C(=O)O)OCc1ccccc1 (Cbz-Phe-Tyr-OH)
3 | – | 120 | 6.96 nM | 836 nM | 79.6 nM | – | CCCCOc1ccc(C[C@H](NC(=O)[C@H](Cc2ccccc2)NC(=O)OCc2ccccc2)C(=O)O)cc1
4 | inactive | 22.7 | 0.78 nM | 17.7 nM | – | – | CC(C)C[C@H](NC(=O)[C@H](Cc1ccccc1)NC(=O)OCc1ccccc1)C(=O)O (Cbz-Phe-Leu-OH)
5 | inactive | 2.91 | 15.5 nM | 45.1 nM | – | – | C[C@H](NC(=O)[C@H](Cc1ccccc1)NC(=O)OCc1ccccc1)C(=O)O
6 | inactive | 94.2 | 0.74 nM | 69.7 nM | – | 104 nM | O=C(N[C@@H](Cc1ccccc1)C(=O)N[C@@H](Cc1ccccc1)C(=O)O)OCc1ccccc1 (Cbz-Phe-Phe-OH)
7 | inactive | 33.1 | 2.95 nM | 97.7 nM | 104 nM | – | COc1ccc(C[C@H](NC(=O)[C@H](Cc2ccccc2)NC(=O)OCc2ccccc2)C(=O)O)cc1 (Cbz-Phe-Tyr(Me)-OH)
